Molecules are shown by their SMILES.

One test deals with ER-positive cancer. As to conditions: compared to placebo, cited from earlier work.
Test [1] deals with ER-positive breast cancer. Put plainly: Distant relapse-free survival after adjuvant tamoxifen. It counts as in vivo, human. As to conditions: ER-positive patients on adjuvant tamoxifen. How it is done: Patients and Samples. […] At MDACC, pre-treatment fine needle aspiration (FNA) samples of primary breast cancer were obtained using a 23-gauge needle and the cells from 1-2 passes were collected into a vial containing 1 ml of RNAlater™ solution (Ambion, Austin Tex.) and stored at −80° C. until use, whereas archival frozen samples were evaluated from resected, metastatic, ER-positive breast cancer. All patients signed an informed consent for voluntary participation to collect samples for research. At other institutions, fresh tissue samples of surgically resected primary breast cancer were frozen in OCT compound and stored at −80° C.
Statistical Analysis of Distant relapse-free survival (DRFS). Distant relapse-free survival (DRFS) was defined as the interval from breast surgery until diagnosis of distant metastasis. Covariate effects on distant relapse risk after tamoxifen treatment were evaluated using log-rank test in multivariate Cox proportional hazards models stratified by institution. […] Confidence intervals of the survival estimate were calculated based on the Tsiatis variance estimates of the cumulative log-hazards (Therneau and Grambsch, 2000). […]

Take `N#Cc1ccc(C(c2ccc(C#N)cc2)n2cncn2)cc1` [letrozole]: in the test on ER-positive cancer (after 2.4 years, after 5 years of adjuvant tamoxifen), the “relative reduction in deaths” value was 24%. In addition, in the test on ER-positive cancer (at 2.4 years), the “absolute difference in recurrence or new primaries” value is on record as 2.2%.

For `CC/C(=C(\c1ccccc1)c1ccc(OCCN(C)C)cc1)c1ccccc1` [tamoxifen], the “mean relapse-free survival at 10 years” value in test [1] (SET index<2) is listed as 57.1%; in test [1] (SET index>5), 90.0%.
